Numbers after ± are expanded uncertainties.
Conditions: Fluid (supercritical or subcritical phases), isochoric method

FC(F)(F)/C=C/C(F)(F)F [trans-1,1,1,4,4,4-hexafluoro-2-butene]
mass density (323.43 K, 579.7 kPa): 1212.1 ± 4.9 kg/m3 | mass density (333.44 K, 5332.4 kPa): 1210.9 ± 4.9 kg/m3 | mass density (333.46 K, 1305.2 kPa): 1180.7 ± 4.7 kg/m3 | mass density (343.44 K, 10088 kPa): 1209.8 ± 4.9 kg/m3 | mass density (343.45 K, 5602.3 kPa): 1179.6 ± 4.7 kg/m3 | mass density (353.44 K, 1232.2 kPa): 1093.7 ± 6 kg/m3 | mass density (353.44 K, 4087.2 kPa): 1128.3 ± 4.5 kg/m3 | mass density (353.46 K, 9911.4 kPa): 1178.4 ± 4.7 kg/m3 | mass density (363.43 K, 7766.9 kPa): 1127.2 ± 4.5 kg/m3 | mass density (363.44 K, 4495.7 kPa): 1092.6 ± 4.4 kg/m3 | mass density (363.45 K, 2343 kPa): 1061.2 ± 4.3 kg/m3 | mass density (373.43 K, 1203.4 kPa): 83.9 ± 11 kg/m3 | mass density (373.43 K, 1779.9 kPa): 991.3 ± 14 kg/m3 | mass density (373.44 K, 7789.6 kPa): 1091.5 ± 4.4 kg/m3 | mass density (373.46 K, 5302.7 kPa): 1060.2 ± 4.3 kg/m3 | mass density (383.41 K, 1661.4 kPa): 129.2 ± 6.5 kg/m3 | mass density (383.43 K, 2410.5 kPa): 940.3 ± 4.4 kg/m3 | mass density (383.44 K, 1263 kPa): 83.9 ± 1 kg/m3 | mass density (383.44 K, 4128.8 kPa): 990.3 ± 4 kg/m3 | mass density (383.46 K, 8290.7 kPa): 1059.2 ± 4.3 kg/m3 | mass density (393.42 K, 1764.3 kPa): 129.1 ± 5.6 kg/m3 | mass density (393.44 K, 1320.8 kPa): 83.8 ± 0.9 kg/m3 | mass density (393.44 K, 6524 kPa): 989.3 ± 4 kg/m3 | mass density (393.45 K, 2531 kPa): 848.7 ± 4.2 kg/m3 | mass density (393.45 K, 4410.6 kPa): 939.4 ± 3.8 kg/m3 | mass density (403.43 K, 1863.4 kPa): 128.9 ± 1.9 kg/m3 | mass density (403.43 K, 2784.5 kPa): 594.5 ± 22 kg/m3 | mass density (403.43 K, 3331.6 kPa): 794.2 ± 3.6 kg/m3 | mass density (403.44 K, 1377.2 kPa): 83.7 ± 0.9 kg/m3 | mass density (403.44 K, 2465.8 kPa): 220.8 ± 4 kg/m3 | mass density (403.44 K, 2774.4 kPa): 460.7 ± 22 kg/m3 | mass density (403.44 K, 2774.7 kPa): 402.7 ± 28 kg/m3 | mass density (403.44 K, 2776.5 kPa): 535.5 ± 22 kg/m3 | mass density (403.44 K, 4004.8 kPa): 847.9 ± 3.4 kg/m3 | mass density (403.44 K, 8946 kPa): 988.4 ± 4 kg/m3 | mass density (403.45 K, 2727.9 kPa): 325 ± 23 kg/m3 | mass density (403.45 K, 2855.7 kPa): 688.4 ± 5.1 kg/m3 | mass density (403.45 K, 3069.1 kPa): 755.5 ± 4.3 kg/m3 | mass density (403.45 K, 6453.8 kPa): 938.5 ± 3.8 kg/m3 | mass density (413.42 K, 1959.4 kPa): 128.8 ± 1.6 kg/m3 | mass density (413.42 K, 3461.5 kPa): 594 ± 4.2 kg/m3 | mass density (413.43 K, 3371.4 kPa): 535 ± 6.3 kg/m3 | mass density (413.43 K, 4600.2 kPa): 793.4 ± 3.3 kg/m3 | mass density (413.43 K, 5530.3 kPa): 847.1 ± 3.4 kg/m3 | mass density (413.44 K, 1432.9 kPa): 83.6 ± 0.8 kg/m3 | mass density (413.44 K, 2664.9 kPa): 220.6 ± 1.7 kg/m3 | mass density (413.44 K, 3213.6 kPa): 402.3 ± 5.4 kg/m3 | mass density (413.44 K, 3284.4 kPa): 460.2 ± 7.2 kg/m3 | mass density (413.44 K, 8521.8 kPa): 937.6 ± 3.8 kg/m3 | mass density (413.45 K, 3064.7 kPa): 324.7 ± 3.9 kg/m3 | mass density (413.45 K, 4177.9 kPa): 754.8 ± 3.2 kg/m3 | mass density (413.46 K, 3739.9 kPa): 687.7 ± 3.5 kg/m3 | mass density (423.42 K, 2053.6 kPa): 128.7 ± 1 kg/m3 | mass density (423.42 K, 3980.8 kPa): 534.4 ± 3.6 kg/m3 | mass density (423.42 K, 4173.8 kPa): 593.4 ± 3.1 kg/m3 | mass density (423.43 K, 1487.5 kPa): 83.5 ± 0.8 kg/m3 | mass density (423.43 K, 3786.7 kPa): 459.8 ± 3.9 kg/m3 | mass density (423.43 K, 5906.9 kPa): 792.7 ± 3.2 kg/m3 | mass density (423.44 K, 7088.7 kPa): 846.2 ± 3.4 kg/m3 | mass density (423.45 K, 2857.2 kPa): 220.3 ± 2 kg/m3 | mass density (423.45 K, 3387.7 kPa): 324.4 ± 2.4 kg/m3 | mass density (423.45 K, 3637.3 kPa): 402 ± 3.2 kg/m3 | mass density (423.45 K, 5329 kPa): 754 ± 3.1 kg/m3 | mass density (423.46 K, 4672.9 kPa): 687 ± 3.1 kg/m3 | mass density (433.42 K, 2146.1 kPa): 128.6 ± 0.9 kg/m3 | mass density (433.42 K, 4598 kPa): 533.9 ± 2.9 kg/m3 | mass density (433.42 K, 4900.8 kPa): 592.8 ± 2.7 kg/m3 | mass density (433.43 K, 1541.9 kPa): 83.4 ± 0.7 kg/m3 | mass density (433.43 K, 4284.4 kPa): 459.3 ± 2.8 kg/m3 | mass density (433.43 K, 4286.7 kPa): 459.3 ± 2.8 kg/m3 | mass density (433.43 K, 8666.9 kPa): 845.4 ± 3.4 kg/m3 | mass density (433.44 K, 3703.4 kPa): 324.1 ± 2 kg/m3 | mass density (433.44 K, 7237.5 kPa): 791.9 ± 3.2 kg/m3 | mass density (433.45 K, 3045.2 kPa): 220.1 ± 1.4 kg/m3 | mass density (433.45 K, 4055.4 kPa): 401.6 ± 2.5 kg/m3 | mass density (433.45 K, 5628.3 kPa): 686.4 ± 2.9 kg/m3 | mass density (433.45 K, 6506.9 kPa): 753.3 ± 3.1 kg/m3 | mass density (443.42 K, 1595.5 kPa): 83.4 ± 0.7 kg/m3 | mass density (443.42 K, 5218.7 kPa): 533.4 ± 2.6 kg/m3 | mass density (443.42 K, 5638.1 kPa): 592.3 ± 2.6 kg/m3 | mass density (443.43 K, 2237.3 kPa): 128.4 ± 0.9 kg/m3 | mass density (443.43 K, 4783.2 kPa): 458.9 ± 2.4 kg/m3 | mass density (443.44 K, 4469 kPa): 401.2 ± 2.2 kg/m3 | mass density (443.44 K, 7698.7 kPa): 752.6 ± 3.1 kg/m3 | mass density (443.44 K, 8584 kPa): 791.1 ± 3.2 kg/m3 | mass density (443.45 K, 3230.1 kPa): 219.9 ± 1.3 kg/m3 | mass density (443.45 K, 4013.8 kPa): 323.8 ± 1.8 kg/m3 | mass density (443.45 K, 6600.4 kPa): 685.7 ± 2.8 kg/m3 | mass density (453.42 K, 2327.6 kPa): 128.3 ± 0.8 kg/m3 | mass density (453.42 K, 5843.1 kPa): 532.9 ± 2.4 kg/m3 | mass density (453.42 K, 6380.9 kPa): 591.7 ± 2.5 kg/m3 | mass density (453.43 K, 1648.3 kPa): 83.3 ± 0.7 kg/m3 | mass density (453.44 K, 4319.3 kPa): 323.4 ± 1.7 kg/m3 | mass density (453.44 K, 5280.1 kPa): 458.5 ± 2.2 kg/m3 | mass density (453.44 K, 9941.5 kPa): 790.4 ± 3.2 kg/m3 | mass density (453.45 K, 3412.1 kPa): 219.7 ± 1.2 kg/m3 | mass density (453.46 K, 4880.1 kPa): 400.8 ± 2 kg/m3 | mass density (453.46 K, 7584.8 kPa): 685 ± 2.8 kg/m3 | mass density (453.46 K, 8905 kPa): 751.8 ± 3.1 kg/m3 | mass density (463.42 K, 1700 kPa): 83.2 ± 0.7 kg/m3 | mass density (463.42 K, 7127.1 kPa): 591.1 ± 2.5 kg/m3 | mass density (463.44 K, 2415.5 kPa): 128.2 ± 0.8 kg/m3 | mass density (463.44 K, 6468.5 kPa): 532.4 ± 2.3 kg/m3 | mass density (463.45 K, 5285.9 kPa): 400.4 ± 1.9 kg/m3 | mass density (463.45 K, 10115 kPa): 751.1 ± 3 kg/m3 | mass density (463.46 K, 3590.1 kPa): 219.5 ± 1.1 kg/m3 | mass density (463.46 K, 4621.8 kPa): 323.1 ± 1.6 kg/m3 | mass density (463.46 K, 5775.9 kPa): 458 ± 2.1 kg/m3 | mass density (463.47 K, 8574.6 kPa): 684.4 ± 2.8 kg/m3 | mass density (473.43 K, 7093.2 kPa): 531.9 ± 2.3 kg/m3 | mass density (473.43 K, 7877 kPa): 590.5 ± 2.4 kg/m3 | mass density (473.44 K, 1751.3 kPa): 83.1 ± 0.6 kg/m3 | mass density (473.45 K, 3766 kPa): 219.3 ± 1.1 kg/m3 | mass density (473.45 K, 4919.9 kPa): 322.8 ± 1.5 kg/m3 | mass density (473.45 K, 5690.2 kPa): 400 ± 1.8 kg/m3 | mass density (473.45 K, 6269.7 kPa): 457.6 ± 2 kg/m3 | mass density (473.46 K, 2503.4 kPa): 128.1 ± 0.8 kg/m3 | mass density (473.46 K, 9568.9 kPa): 683.7 ± 2.8 kg/m3 | mass density (483.43 K, 7718.7 kPa): 531.4 ± 2.2 kg/m3 | mass density (483.44 K, 6093 kPa): 399.6 ± 1.8 kg/m3 | mass density (483.44 K, 6761.7 kPa): 457.1 ± 2 kg/m3 | mass density (483.44 K, 8628.9 kPa): 590 ± 2.4 kg/m3 | mass density (483.45 K, 1803.6 kPa): 83 ± 0.6 kg/m3 | mass density (483.45 K, 5216.5 kPa): 322.5 ± 1.5 kg/m3 | mass density (483.46 K, 2590.8 kPa): 128 ± 0.7 kg/m3 | mass density (483.46 K, 3941.1 kPa): 219.1 ± 1.1 kg/m3 | mass density (493.42 K, 8344.4 kPa): 530.8 ± 2.2 kg/m3 | mass density (493.43 K, 2677.3 kPa): 127.8 ± 0.7 kg/m3 | mass density (493.44 K, 9378.9 kPa): 589.4 ± 2.4 kg/m3 | mass density (493.45 K, 1854.7 kPa): 83 ± 0.6 kg/m3 | mass density (493.46 K, 5509.7 kPa): 322.2 ± 1.4 kg/m3 | mass density (493.46 K, 6493.6 kPa): 399.3 ± 1.7 kg/m3 | mass density (493.46 K, 7253 kPa): 456.7 ± 1.9 kg/m3 | mass density (493.47 K, 4117.6 kPa): 218.9 ± 1 kg/m3 | mass density (503.44 K, 2763.1 kPa): 127.7 ± 0.7 kg/m3 | mass density (503.44 K, 8968.2 kPa): 530.3 ± 2.2 kg/m3 | mass density (503.45 K, 1906.1 kPa): 82.9 ± 0.6 kg/m3 | mass density (503.45 K, 7742.3 kPa): 456.3 ± 1.9 kg/m3 | mass density (503.45 K, 10130 kPa): 588.8 ± 2.4 kg/m3 | mass density (503.46 K, 6891.7 kPa): 398.9 ± 1.7 kg/m3 | mass density (503.47 K, 4290.5 kPa): 218.7 ± 1 kg/m3 | mass density (503.47 K, 5802.6 kPa): 321.9 ± 1.4 kg/m3 | mass density (513.42 K, 2848.4 kPa): 127.6 ± 0.7 kg/m3 | mass density (513.42 K, 8228 kPa): 455.8 ± 1.9 kg/m3 | mass density (513.43 K, 9591.2 kPa): 529.8 ± 2.2 kg/m3 | mass density (513.44 K, 1956.7 kPa): 82.8 ± 0.6 kg/m3 | mass density (513.46 K, 4460.3 kPa): 218.4 ± 1 kg/m3 | mass density (513.46 K, 7287.8 kPa): 398.5 ± 1.7 kg/m3 | mass density (513.47 K, 6092.7 kPa): 321.6 ± 1.4 kg/m3 | mass density (523.41 K, 2933.2 kPa): 127.5 ± 0.7 kg/m3 | mass density (523.41 K, 8713.2 kPa): 455.4 ± 1.9 kg/m3 | mass density (523.44 K, 6379.8 kPa): 321.3 ± 1.4 kg/m3 | mass density (523.44 K, 10213 kPa): 529.3 ± 2.2 kg/m3 | mass density (523.45 K, 2008.3 kPa): 82.7 ± 0.6 kg/m3 | mass density (523.45 K, 7680.8 kPa): 398.1 ± 1.7 kg/m3 | mass density (523.46 K, 4629.7 kPa): 218.2 ± 1 kg/m3

— the NIST ThermoML archive (doi:10.1021/acs.jced.7b00381)
